Key:
RXRγ = biological target: T1, RXRγ (Homo sapiens, UniProt P48443); assay: Gal4 hybrid reporter gene assay RXRγ; assay type: cell-based; settings: HEK293T; at 100 µM concentrations and above
T1 construct: pFA-CMV-hRXRγ-LBD (NR2B3, UniProt entry: P48443-1, aa 229–463); expressed in transfected cells; host or cells: HEK293T
T1 sequence (P48443 229-463): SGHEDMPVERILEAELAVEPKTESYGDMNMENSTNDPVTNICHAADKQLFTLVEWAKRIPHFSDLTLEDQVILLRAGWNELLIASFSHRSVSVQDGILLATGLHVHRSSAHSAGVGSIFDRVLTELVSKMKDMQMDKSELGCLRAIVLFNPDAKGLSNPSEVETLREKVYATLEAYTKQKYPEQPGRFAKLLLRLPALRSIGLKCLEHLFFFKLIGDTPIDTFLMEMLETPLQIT
Method: (§1) The Gal4 hybrid reporter gene assays for RXRα, RXRβ and RXRγ were performed as described previously using the Gal4-fusion receptor plasmids pFA-CMV-hRXRα-LBD (NR2B1, UniProt entry: P19793, aa 225–462), pFA-CMV-hRXRβ-LBD (NR2B2, UniProt entry: P28702-1, aa 294–533) and pFA-CMV-hRXRγ-LBD (NR2B3, UniProt entry: P48443-1, aa 229–463), which code for the hinge region and LBD of the canonical RXR isoform. pFR-Luc (Stratagene, San Diego, CA, USA) as the reporter plasmid and pRL-SV40 (Promega, Madison, WI, USA) as the internal control were used. HEK293T cells were grown in DMEM high-glucose medium (supplemented with 10% fetal calf serum (FCS), sodium pyruvate (1 mM), penicillin (100 U/mL) and streptomycin (100 μg/mL)) at 37 °C and 5% CO2, and seeded in 96-well plates (3.0 × 10^4 cells/well) on the day before transfection. Right before transfection, medium was changed to Opti-MEM without supplements and cells were transiently transfected using the Lipofectamine LTX reagent (Invitrogen, Carlsbad, CA, USA) according to the manufacturer’s protocol with pFR-Luc (Stratagene), pRL-SV40 (Promega) and the respective pFA-CMV-hRXR-LBD clone. After 5 h of incubation, medium was changed to Opti-MEM (supplemented with penicillin (100 U/mL) and streptomycin (100 μg/mL)) additionally containing 0.1% DMSO and the respective test compounds or 0.1% DMSO alone as the untreated control. After overnight incubation (12–14 h), cells were assayed for luciferase activity using the Dual-Glo luciferase assay system (Promega) according to the manufacturer’s protocol on a Tecan Spark M10 luminometer (Tecan Deutschland GmbH, Crailsheim, Germany). Each sample was tested in at least three biologically independent repeats in duplicates. Data were normalized for transfection efficiency and cell growth by division of firefly luciferase data by Renilla luciferase data and multiplying by 1000 to obtain relative light units (RLUs). Fold activation denotes the mean RLU of test compounds at a respective concentration divided by the mean RLU of untreated control. […]

RXRβ = biological target: T2, RXRβ (Homo sapiens, UniProt P28702); assay: Gal4 hybrid reporter gene assay RXRβ; assay type: cell-based; settings: HEK293T; at 100 µM concentrations and above
T2 construct: pFA-CMV-hRXRβ-LBD (NR2B2, UniProt entry: P28702-1, aa 294–533); expressed in transfected cells; host or cells: HEK293T
T2 sequence (P28702 294-533): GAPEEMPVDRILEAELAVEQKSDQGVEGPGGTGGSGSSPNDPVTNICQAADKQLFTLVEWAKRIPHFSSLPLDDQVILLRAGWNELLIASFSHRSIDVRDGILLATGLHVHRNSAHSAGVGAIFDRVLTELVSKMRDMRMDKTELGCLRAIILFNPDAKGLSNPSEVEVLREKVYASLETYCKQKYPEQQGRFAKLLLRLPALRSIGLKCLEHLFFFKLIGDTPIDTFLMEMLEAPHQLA
Method: as §1

RXRα = biological target: T3, RXRα (Homo sapiens, UniProt P19793); assay: Gal4 hybrid reporter gene assay RXRα; assay type: cell-based; settings: HEK293T; at 100 µM concentrations and above
T3 construct: pFA-CMV-hRXRα-LBD (NR2B1, UniProt entry: P19793, aa 225–462); expressed in transfected cells; host or cells: HEK293T
T3 sequence (P19793 225-462): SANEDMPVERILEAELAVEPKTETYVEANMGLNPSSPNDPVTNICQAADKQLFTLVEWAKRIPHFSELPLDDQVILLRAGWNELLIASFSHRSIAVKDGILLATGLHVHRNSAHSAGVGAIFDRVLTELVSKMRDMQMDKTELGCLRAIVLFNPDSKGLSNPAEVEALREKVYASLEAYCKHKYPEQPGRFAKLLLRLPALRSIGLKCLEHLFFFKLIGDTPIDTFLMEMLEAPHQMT
Method: as §1

RXR = assay: Gal4 hybrid reporter gene assays, competition with bexarotene / antagonist UVI3003 (isoform not specified); assay type: cell-based, human; settings: bexarotene 0.1 µM or 1 µM; for effect on bexarotene-induced RXR activation, low concentration: fatty acid 10 µM; for effect on bexarotene-induced RXR activation, higher concentration: fatty acid 100 µM, not statistically significant for all fatty acids on all isoforms
Method: as §1

Compound | RXRγ activation in Gal4 hybrid reporter gene assay (RXRγ) | RXRβ activation in Gal4 hybrid reporter gene assay (RXRβ) | RXRα activation in Gal4 hybrid reporter gene assay (RXRα) | effect on bexarotene-induced RXR activation, low concentration (RXR) | effect on bexarotene-induced RXR activation, higher concentration (RXR)
CCCCCCCCCCCCCC(=O)O [MA, myristic acid] | activated | activated | activated | tendency to further promote RXR activation | weak competitive behavior
CCCCCCCCCCCCCCCC(=O)O [PA, palmitic acid] | activated | activated | activated | tendency to further promote RXR activation | weak competitive behavior
CCCCCCCCCCCCCCCCCC(=O)O [SA, stearic acid] | activated | activated | activated | tendency to further promote RXR activation | weak competitive behavior

Reference: paper PMC7697888, “Comprehensive Set of Tertiary Complex Structures and Palmitic Acid Binding Provide Molecular Insights into Ligand Design for RXR Isoforms” (International Journal of Molecular Sciences, 2020)
